Measurements taken from BigSolDB 2.1.

N#Cc1cccc([N+](=O)[O-])c1C#N
solubility (mole fraction)
Conditions | 278.15 K | 283.15 K | 288.15 K | 293.15 K | 298.15 K | 303.15 K | 308.15 K | 313.15 K | 318.15 K | 323.15 K
in NMP | 0.0839 | 0.0936 | 0.104 | 0.115 | 0.128 | 0.141 | 0.155 | 0.17 | 0.186 | 0.203
in acetone | 0.0204 | 0.0242 | 0.0286 | 0.0338 | 0.0399 | 0.0472 | 0.0558 | 0.0661 | 0.0783 | 0.0929
in ethanol | 0.000924 | 0.00111 | 0.00134 | 0.0016 | 0.00194 | 0.00232 | 0.00273 | 0.00325 | 0.00382 | 0.00448
in ethyl acetate | 0.0178 | 0.0208 | 0.0242 | 0.0281 | 0.0324 | 0.0372 | 0.0426 | 0.0487 | 0.0555 | 0.063
in ethylene glycol | 0.0131 | 0.0158 | 0.019 | 0.0226 | 0.0268 | 0.0317 | 0.0373 | 0.0438 | 0.0512 | 0.0596
in isobutanol | 0.000381 | 0.000424 | 0.000477 | 0.000552 | 0.000643 | 0.000765 | 0.000921 | 0.00111 | 0.00135 | 0.00169
in isopropanol | 0.000561 | 0.000681 | 0.000837 | 0.00103 | 0.00125 | 0.00151 | 0.00179 | 0.00216 | 0.00257 | 0.00305
in methanol | 0.00203 | 0.0024 | 0.00283 | 0.00332 | 0.00388 | 0.00452 | 0.00523 | 0.00597 | 0.00695 | 0.00796
in n-butanol | 0.000411 | 0.000478 | 0.000569 | 0.000686 | 0.000836 | 0.001 | 0.0012 | 0.00143 | 0.00171 | 0.00207
in n-propanol | 0.000735 | 0.000899 | 0.00109 | 0.00132 | 0.00159 | 0.00189 | 0.00226 | 0.00268 | 0.00317 | 0.00373
in toluene | 0.000946 | 0.00116 | 0.00142 | 0.00173 | 0.0021 | 0.00254 | 0.00305 | 0.00367 | 0.00437 | 0.00521
in water | 5.32e-05 | 6.38e-05 | 7.98e-05 | 9.78e-05 | 0.00012 | 0.000146 | 0.000176 | 0.00021 | 0.00025 | 0.000298
